Measurements taken from ChEMBL document CHEMBL1201862, “PubChem BioAssay data set” (2004).
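A five-concentration, 48-hour dose response in 96-well plates underlies each endpoint, interpolated linearly between surrounding concentrations. GI50: concentration for 50% inhibition of growth.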 Calls of active or inactive are those of the source. No stated cut-off is given here; in the data, active = GI50 up to about 1.1 µM and inactive = higher.

Legend:
Assay in all cases: growth of human tumour cells (NCI), 48 h
UO-31 = test system: UO-31
MDA-N = test system: MDA-N
HOP-62 = test system: HOP-62
IGROV-1 = test system: IGROV-1
SF-539 = test system: SF-539
NCI-H522 = test system: NCI-H522
UACC-257 = test system: UACC-257
SK-MEL-28 = test system: SK-MEL-28
SNB-19 = test system: SNB-19
HCT-15 = test system: HCT-15
Hs-578T = test system: Hs-578T
SF-268 = test system: SF-268
K562 = test system: K562
OVCAR-5 = test system: OVCAR-5
EKVX = test system: EKVX
CAKI-1 = test system: CAKI-1
NCI-H23 = test system: NCI-H23
NCI/ADR-RES = test system: NCI/ADR-RES
HOP-92 = test system: HOP-92
SR = test system: SR

Measured: GI50

CC1(C)CC(Nc2ccc(Nc3ccccc3)cc2)CC(C)(C)N1
33.8 µM: HCT-15
inactive: UO-31 9.48 µM | MDA-N 17 µM | HOP-62 50.2 µM | IGROV-1 44.1 µM | SF-539 15.8 µM | NCI-H522 10.1 µM | UACC-257 14.7 µM | SK-MEL-28 18.2 µM | SNB-19 50.2 µM | Hs-578T 25.4 µM | SF-268 43.3 µM | K562 13.2 µM | OVCAR-5 36.2 µM | EKVX 34.2 µM | CAKI-1 22.9 µM | NCI-H23 42.4 µM | NCI/ADR-RES 21.9 µM | HOP-92 12 µM | SR 14.6 µM

COc1ccc(-c2c(N)n(-c3cc(OC)cc(OC)c3)c(=O)c3cc([N+](=O)[O-])ccc23)cc1
inactive: UO-31 > 23.3 µM | MDA-N > 50.8 µM | HOP-62 > 100 µM | IGROV-1 > 52.6 µM | SF-539 > 78.3 µM | NCI-H522 5.19 µM | UACC-257 > 90.4 µM | SK-MEL-28 > 100 µM | SNB-19 28.3 µM | Hs-578T 6.01 µM | SF-268 29.4 µM | K562 23.8 µM | OVCAR-5 > 100 µM | EKVX 38.3 µM | CAKI-1 31.4 µM | NCI-H23 > 92 µM | NCI/ADR-RES > 66.1 µM | HOP-92 3.21 µM | SR 27.4 µM
> 54.5 µM: HCT-15

OC1(c2ccccc2)c2ccccc2N=C2NCCN21 (stereo unspecified)
inactive: UO-31 59.2 µM | MDA-N 35.6 µM | HOP-62 > 100 µM | IGROV-1 > 100 µM | SF-539 > 100 µM | NCI-H522 > 100 µM | UACC-257 31.1 µM | SK-MEL-28 89.3 µM | SNB-19 > 100 µM | Hs-578T > 100 µM | SF-268 > 100 µM | OVCAR-5 > 100 µM | EKVX > 100 µM | CAKI-1 45.4 µM | NCI-H23 60 µM | NCI/ADR-RES > 100 µM | HOP-92 54.5 µM
active: SR 0.192 µM
93.1 µM: HCT-15

CC1=NN(C(=O)c2ccncc2)C(=O)C1
> 100 µM: HCT-15
inactive: UO-31 > 100 µM | MDA-N > 100 µM | HOP-62 > 100 µM | IGROV-1 > 100 µM | SF-539 > 100 µM | NCI-H522 > 100 µM | UACC-257 > 100 µM | SK-MEL-28 > 100 µM | SNB-19 > 100 µM | Hs-578T > 100 µM | SF-268 > 100 µM | K562 > 100 µM | OVCAR-5 > 100 µM | EKVX > 100 µM | CAKI-1 > 100 µM | NCI-H23 > 100 µM | NCI/ADR-RES > 100 µM | HOP-92 > 100 µM | SR > 100 µM

COc1ccc2nc3cc([N+](=O)[O-])ccc3c(NNc3ccc([N+](=O)[O-])cc3)c2c1
55.8 µM: HCT-15
active: CAKI-1 0.818 µM
inactive: UO-31 24.7 µM | MDA-N 30.5 µM | HOP-62 57.3 µM | IGROV-1 7.96 µM | SF-539 45.6 µM | NCI-H522 29.3 µM | UACC-257 1.83 µM | SK-MEL-28 68.2 µM | SNB-19 24 µM | Hs-578T 55.3 µM | SF-268 54.7 µM | K562 7.19 µM | OVCAR-5 3.91 µM | EKVX 44.1 µM | NCI-H23 28.4 µM | NCI/ADR-RES 61.8 µM | HOP-92 26.7 µM | SR 32.5 µM

CC(NC(=O)c1ccc(Cl)c(Cl)c1)c1ccc(-c2ccccc2)cc1 (stereo unspecified)
inactive: UO-31 14.2 µM | MDA-N > 100 µM | HOP-62 22.2 µM | IGROV-1 32.8 µM | SF-539 19.3 µM | NCI-H522 33.3 µM | UACC-257 76.2 µM | SK-MEL-28 58.6 µM | SNB-19 21.1 µM | Hs-578T 27 µM | SF-268 29.3 µM | K562 > 100 µM | OVCAR-5 44.9 µM | EKVX 35 µM | CAKI-1 29.9 µM | NCI-H23 48.3 µM | NCI/ADR-RES 54.8 µM | HOP-92 25.5 µM | SR 15.2 µM
> 100 µM: HCT-15

O=c1[nH]c2nc3ccccc3c(=O)n2/c1=C/c1cccs1
> 100 µM: HCT-15
inactive: UO-31 > 100 µM | MDA-N > 100 µM | HOP-62 > 100 µM | IGROV-1 > 100 µM | SF-539 > 100 µM | NCI-H522 > 100 µM | UACC-257 > 100 µM | SK-MEL-28 > 100 µM | SNB-19 > 100 µM | Hs-578T 67 µM | SF-268 > 100 µM | K562 > 100 µM | OVCAR-5 > 100 µM | EKVX > 100 µM | CAKI-1 > 100 µM | NCI-H23 > 100 µM | NCI/ADR-RES > 100 µM | HOP-92 87.7 µM | SR > 100 µM

O=C(Nc1nncs1)NS(=O)(=O)n1c(=S)sc2ccccc21
inactive: UO-31 > 100 µM | MDA-N > 100 µM | HOP-62 > 100 µM | IGROV-1 > 100 µM | SF-539 > 100 µM | NCI-H522 48.1 µM | UACC-257 > 100 µM | SK-MEL-28 > 100 µM | SNB-19 > 100 µM | Hs-578T > 100 µM | SF-268 > 100 µM | K562 > 100 µM | OVCAR-5 > 100 µM | EKVX 72.6 µM | CAKI-1 > 100 µM | NCI-H23 > 100 µM | NCI/ADR-RES > 100 µM | HOP-92 > 100 µM | SR 36.4 µM
> 100 µM: HCT-15

CCCNC(=O)CCC(C)[C@H]1CCC2C3C(C[C@H](OC(C)=O)[C@@]21C)[C@@]1(C)CCC2(C[C@H]1C[C@H]3OC(C)=O)OOC1(CCC(C)CC1)OO2 (stereo partly specified)
active: UO-31 0.959 µM | HOP-92 0.0447 µM
inactive: MDA-N 14.3 µM | HOP-62 1.72 µM | IGROV-1 1.87 µM | SF-539 16.7 µM | NCI-H522 13 µM | UACC-257 23.2 µM | SK-MEL-28 89.7 µM | SNB-19 80.2 µM | Hs-578T 31 µM | SF-268 20 µM | K562 33.2 µM | OVCAR-5 29.2 µM | EKVX 13.6 µM | CAKI-1 2.28 µM | NCI-H23 4.88 µM | NCI/ADR-RES 16.6 µM | SR 9.79 µM
35.3 µM: HCT-15

O=S(=O)(O)c1ccc(-c2nnc(-c3ccccn3)nc2-c2ccc(S(=O)(=O)O)o2)o1
> 100 µM: HCT-15
inactive: UO-31 > 100 µM | MDA-N > 100 µM | HOP-62 > 100 µM | IGROV-1 > 100 µM | SF-539 > 100 µM | NCI-H522 > 100 µM | SK-MEL-28 > 100 µM | SNB-19 > 100 µM | Hs-578T > 100 µM | SF-268 > 100 µM | K562 > 100 µM | OVCAR-5 > 100 µM | EKVX > 100 µM | CAKI-1 > 100 µM | NCI-H23 > 100 µM | NCI/ADR-RES > 100 µM | HOP-92 > 100 µM | SR > 100 µM

O=C(CSc1ncccn1)N/N=C/c1ccccc1OCc1ccccc1
17.3 µM: HCT-15
inactive: UO-31 44.5 µM | MDA-N 10.8 µM | HOP-62 28.2 µM | IGROV-1 28.4 µM | SF-539 20.8 µM | NCI-H522 28.4 µM | UACC-257 21 µM | SK-MEL-28 36.6 µM | SNB-19 45.3 µM | Hs-578T 37.8 µM | SF-268 43 µM | K562 20.1 µM | OVCAR-5 > 100 µM | EKVX 27.9 µM | CAKI-1 26.4 µM | NCI-H23 32.3 µM | NCI/ADR-RES 25.9 µM | HOP-92 16.9 µM | SR 4.23 µM

O=[N+]([O-])c1ccc(-[n+]2ccc3ccccc3c2)c([N+](=O)[O-])c1
inactive: UO-31 5.02 µM | MDA-N 2.33 µM | HOP-62 8.18 µM | IGROV-1 3.1 µM | SF-539 5.21 µM | NCI-H522 2.1 µM | UACC-257 1.81 µM | SK-MEL-28 2.83 µM | SNB-19 18.1 µM | Hs-578T 7.6 µM | SF-268 3.12 µM | K562 1.55 µM | OVCAR-5 11.7 µM | EKVX 6.73 µM | CAKI-1 4.14 µM | NCI-H23 2.43 µM | NCI/ADR-RES 3.28 µM | HOP-92 2.48 µM | SR 3.42 µM
1.86 µM: HCT-15

CCOC(=O)c1nc2ccccc2nc1Oc1cc(OC)c(OC)c(OC)c1
inactive: UO-31 > 100 µM | MDA-N > 100 µM | HOP-62 31.4 µM | IGROV-1 > 100 µM | SF-539 39.4 µM | NCI-H522 83.4 µM | UACC-257 > 100 µM | SK-MEL-28 > 100 µM | SNB-19 > 100 µM | Hs-578T 27.1 µM | SF-268 > 100 µM | OVCAR-5 > 100 µM | EKVX > 100 µM | CAKI-1 84.5 µM | NCI-H23 87.3 µM | NCI/ADR-RES > 100 µM | HOP-92 47.6 µM | SR > 100 µM
> 100 µM: HCT-15

CC(=O)OC1(C)N=NC2(CCCCC2)O1 (stereo unspecified)
> 100 µM: HCT-15
inactive: MDA-N > 100 µM | HOP-62 > 100 µM | IGROV-1 > 100 µM | SF-539 > 100 µM | NCI-H522 > 100 µM | UACC-257 > 100 µM | SK-MEL-28 > 100 µM | SNB-19 > 100 µM | Hs-578T > 100 µM | SF-268 > 100 µM | K562 > 100 µM | OVCAR-5 > 100 µM | EKVX > 100 µM | CAKI-1 > 100 µM | NCI-H23 > 100 µM | NCI/ADR-RES > 100 µM | HOP-92 > 100 µM | SR > 100 µM
